Experimental data taken from patent US11427567B2, “Imidazolyl pyrimidinylamine compounds as CDK2 inhibitors” (Incyte Corporation, priority 2019, dated 2022).

Molecular target: CDK2/Cyclin E1 (Homo sapiens (Human), UniProt P24941)
Assay: CDK2/Cyclin E1 HTRF enzyme activity assay (Example A)
Format: biochemical
Conditions: 1 mM ATP
Protocol: Assays were conducted in white 384-well polystyrene plates in a final reaction volume of 8 μL. […] HTRF signals were read after 1 hour at room temperature on a PHERAstar FS plate reader (BMG Labtech). Data was analyzed with IDBS XLFit and GraphPad Prism 5.0 software using a three or four parameter dose response curve to determine IC50 for each compound.

IC50, ≤ 50 nM:
Cc1ccc(-n2cnc(-c3nc(NC4CCN(S(=O)(=O)c5cnn(C)c5C)CC4)ncc3C(F)(F)F)c2)c(C#N)n1 [Example 90, 3-(4-(2-((1-((1,5-Dimethyl-1H-pyrazol-4-yl)sulfonyl)piperidin-4-yl)amino)-5-(trifluoromethyl)pyrimidin-4-yl)-1H-imidazol-1-yl)-6-methylpicolinonitrile]
CN1CCN(Cc2cc(F)c(-n3cnc(-c4nc(N[C@H]5CCN(S(C)(=O)=O)C[C@H]5F)ncc4C(F)(F)F)c3)c(F)c2)CC1 [Example 443, 4-(1-(2,6-Difluoro-4((4-methylpiperazin-1-yl)methyl)phenyl)-1H-imidazol-4-yl)-N-((3R,4S)-3-fluoro-1-(methylsulfonyl)piperidin-4-yl)-5-(trifluoromethyl)pyrimidin-2-amine]
CC(c1ccc(-n2cnc(-c3nc(NC4CCN(S(C)(=O)=O)CC4)ncc3C(F)(F)F)c2)c(Cl)c1)N1CCC1 (centres unmarked) [Example 274, 4-(1-(4-(1-(Azetidin-1-yl)ethyl)-2-chlorophenyl)-1H-imidazol-4-yl)-N-(1-(methylsulfonyl)piperidin-4-yl)-5-(trifluoromethyl)pyrimidin-2-amine]
CN1CCN(Cc2cc(F)c(-n3cnc(-c4nc(NC5CCN(S(C)(=O)=O)CC5)ncc4C(F)(F)F)c3)c(F)c2)CC1=O [Example 409, 4-(3,5-Difluoro-4-(4-(2-((1-(methylsulfonyl)piperidin-4-yl)amino)-5-(trifluoromethyl)pyrimidin-4-yl)-1H-imidazol-1-yl)benzyl)-1-methylpiperazin-2-one]
CC(C)NCc1cc(F)c(-n2cnc(-c3nc(NC4CCN(S(C)(=O)=O)CC4)ncc3C(F)(F)F)c2)c(F)c1 [Example 348]
CC(C)NCc1ccc(-n2cnc(-c3nc(N[C@@H]4CCN(S(C)(=O)=O)C[C@H]4F)ncc3C(F)(F)F)c2)c(Cl)c1 [Example 400, 4-(1-(2-Chloro-4-((isopropylamino)methyl)phenyl)-1H-imidazol-4-yl)-N-((3R,4R)-3-fluoro-1-(methylsulfonyl)piperidin-4-yl)-5-(trifluoromethyl)pyrimidin-2-amine]
CS(=O)(=O)N1CCC(Nc2ncc(C(F)(F)F)c(-c3cn(-c4ccc(Cn5ccnc5)cc4Cl)cn3)n2)CC1 [Example 238, 4-(1-(4-((H-Imidazol-1-yl)methyl)-2-chlorophenyl)-1H-imidazol-4-yl)-N-(1-(methylsulfonyl)piperidin-4-yl)-5-(trifluoromethyl)pyrimidin-2-amine]
CS(=O)(=O)N1CCC(Nc2ncc(C(F)(F)F)c(-c3cn(-c4ccnc(C#N)c4Cl)cn3)n2)CC1 [Example 307, 3-Chloro-4-(4-(2-((1-(methylsulfonyl)piperidin-4-yl)amino)-5-(trifluoromethyl)pyrimidin-4-yl)-1H-imidazol-1-yl)picolinonitrile]
Cc1nn(C)cc1-n1cnc(-c2nc(NC3CCN(S(C)(=O)=O)CC3)ncc2C(F)(F)F)c1 [Example 169, 4-(1-(1,3-Dimethyl-1H-pyrazol-4-yl)-1H-imidazol-4-yl)-N-(1-(methylsulfonyl)piperidin-4-yl)-5-(trifluoromethyl)pyrimidin-2-amine]
Cn1cnc(-c2nc(NC3CCN(S(C)(=O)=O)CC3)ncc2C(F)(F)F)c1 [Example 11, 4-(1-Methyl-1H-imidazol-4-yl)-N-(1-(methylsulfonyl)piperidin-4-yl)-5-(trifluoromethyl)pyrimidin-2-amine]
CS(=O)(=O)N1CCC(Nc2ncc(C(F)(F)F)c(-c3cn(-c4ccc(CNCC(F)(F)F)cc4Cl)cn3)n2)CC1 [Example 188, 4-(1-(2-Chloro-4-(((2,2,2-trifluoroethyl)-amino)methyl)phenyl)-1H-imidazol-4-yl)-N-(1-(methylsulfonyl)-piperidin-4-yl)-5-(trifluoromethyl)-pyrimidin-2-amine]
CC(C)NCc1cc(F)c(-n2cnc(-c3nc(N[C@@H]4CCN(S(C)(=O)=O)C[C@H]4F)ncc3C(F)(F)F)c2)c(Cl)c1 [Example 405, 4-(1-(2-Chloro-6-fluoro-4-((isopropylamino)methyl)phenyl)-1H-imidazol-4-yl)-N-((3R,4R)-3-fluoro-1-(methylsulfonyl)piperidin-4-yl)-5-(trifluoromethyl)pyrimidin-2-amine]
CO[C@@H]1CCN(Cc2ccc(-n3cnc(-c4nc(NC5CCN(S(C)(=O)=O)CC5)ncc4C(F)(F)F)c3)c(Cl)c2)C1 [Example 207, (R)-4-(1-(2-Chloro-4-((3-methoxypyrrolidin-1-yl)methyl)phenyl)-1H-imidazol-4-yl)-N-(1-(methylsulfonyl)-piperidin-4-yl)-5-(trifluoromethyl)-pyrimidin-2-amine]
CCNCc1cc(F)c(-n2cnc(-c3nc(N[C@H]4CCN(S(C)(=O)=O)C[C@H]4F)ncc3C(F)(F)F)c2)c(F)c1 [Example 444, 4-(1-(4-((Ethylamino)methyl)-2,6-difluorophenyl)-1H-imidazol-4-yl)-N-((3R,4S)-3-fluoro-1-(methylsulfonyl)piperidin-4-yl)-5-(trifluoromethyl)pyrimidin-2-amine]
Cc1ccc(-n2cnc(-c3nc(N[C@H]4CCN(S(=O)(=O)c5cn(C)cn5)C[C@H]4C)ncc3C(F)(F)F)c2)c(C#N)n1 [Example 152, 6-Methyl-3-(4-(2-(((3R,4S)-3-methyl-1-((1-methyl-1H-imidazol-4-yl)sulfonyl)piperidin-4-yl)amino)-5-(trifluoromethyl)pyrimidin-4-yl)-1H-imidazol-1-yl)picolinonitrile]
CS(=O)(=O)N1CCC(Nc2ncc(C(F)(F)F)c(-c3cn(-c4ccc(CN5CC[C@H](O)C5)cc4Cl)cn3)n2)CC1 [Example 206, (S)-1-(3 -Chloro-4-(4-(2-((1-(methyl-sulfonyl)piperidin-4-yl)amino)-5-(trifluoromethyl)-pyrimidin-4-yl)-1H-imidazol-1-yl)benzyl)-pyrrolidin-3-ol]
CC1(F)CN(Cc2ccc(-n3cnc(-c4nc(NC5CCN(S(C)(=O)=O)CC5)ncc4C(F)(F)F)c3)c(Cl)c2)C1 [Example 196, 4-(1-(2-Chloro-4-((3-fluoro-3-methyl-azetidin-1-yl)methyl)-phenyl)-1H-imidazol-4-yl)-N-(1-(methyl-sulfonyl)piperidin-4-yl)-5-(trifluoromethyl)-pyrimidin-2-amine]
C[C@@]1(O)CCN(Cc2ccc(-n3cnc(-c4nc(NC5CCN(S(C)(=O)=O)CC5)ncc4C(F)(F)F)c3)c(Cl)c2)C1 [Example 181, (R)-1-(3-Chloro-4-(4-(2-((1-(methylsulfonyl)piperidin-4-yl)amino)-5-(trifluoromethyl)pyrimidin-4-yl)-1H-imidazol-1-yl)benzyl)-3-methylpyrrolidin-3-ol]
CS(=O)(=O)N1CCC(Nc2ncc(C(F)(F)F)c(-c3cn(-c4cccc(CN5CC(O)C5)c4Cl)cn3)n2)CC1 [Example 82, 1-(2-Chloro-3-(4-(2-((1-(methylsulfonyl)piperidin-4-yl)amino)-5-(trifluoromethyl)pyrimidin-4-yl)-1H-imidazol-1-yl)benzyl)azetidin-3-ol]
Cc1nc(-c2nc(NC3CCN(S(C)(=O)=O)CC3)ncc2C(F)(F)F)cn1-c1ccc(CCCN2CCC2)cc1F [Example 459, 4-(1-(4-(3-(Azetidin-1-yl)propyl)-2-fluorophenyl)-2-methyl-1H-imidazol-4-yl)-N-(1-(methylsulfonyl)piperidin-4-yl)-5-(trifluoromethyl)pyrimidin-2-amine]
N#Cc1cccc(-n2cnc(-c3nc(NC4CCN(S(=O)(=O)C5CC5)CC4)ncc3C(F)(F)F)c2)c1C(F)(F)F [Example 92, 3-(4-(2-((1-(Cyclopropylsulfonyl)piperidin-4-yl)amino)-5-(trifluoromethyl)pyrimidin-4-yl)-1H-imidazol-1-yl)-2-(trifluoromethyl) benzonitrile]
CS(=O)(=O)N1CCC(Nc2ncc(C(F)(F)F)c(-c3cn(-c4ccc(CN5CC6CCC5CO6)cc4Cl)cn3)n2)CC1 (centres unmarked) [Example 216, 4-(1-(4-((2-Oxa-5-azabicyclo[2.2.2]-octan-5-yl)methyl)-2-chlorophenyl)-1H-imidazol-4-yl)-N-(1-(methylsulfonyl)-piperidin-4-yl)-5-(trifluoromethyl)-pyrimidin-2-amine]
CC1(O)CCN(Cc2ccc(-n3cnc(-c4nc(NC5CCN(S(C)(=O)=O)CC5)ncc4C(F)(F)F)c3)c(C(F)(F)F)c2)CC1 [Example 262, 4-Methyl-1-(4-(4-(2-((1-(methylsulfonyl)piperidin-4-yl)amino)-5-(trifluoromethyl)pyrimidin-4-yl)-1H-imidazol-1-yl)-3-(trifluoromethyl)benzyl) piperidin-4-ol]
CCNCc1cc(F)c(-n2cnc(-c3nc(N[C@@H]4CCN(S(C)(=O)=O)C[C@H]4F)ncc3C(F)(F)F)c2)c(F)c1 [Example 390, 4-(1-(4-((Ethylamino)methyl)-2,6-difluorophenyl)-1H-imidazol-4-yl)-N-((3R,4R)-3-fluoro-1-(methylsulfonyl)piperidin-4-yl)-5-(trifluoromethyl)pyrimidin-2-amine]
CS(=O)(=O)N1CCC(Nc2ncc(C(F)(F)F)c(-c3cn(-c4ccc(C(F)(F)F)nc4C#N)cn3)n2)CC1 [Example 64, 3-(4-(2-((1-(Methylsulfonyl)piperidin-4-yl)amino)-5-(trifluoromethyl)pyrimidin-4-yl)-1H-imidazol-1-yl)-6-(trifluoromethyl)picolinonitrile]
CS(=O)(=O)N1CCC(Nc2ncc(C(F)(F)F)c(-c3cn(-c4ccc(CN5CCC5)nc4C(F)(F)F)cn3)n2)CC1 [Example 247, 4-(1-(6-(Azetidin-1-ylmethyl)-2-(trifluoromethyl)pyridin-3-yl)-1H-imidazol-4-yl)-N-(1-(methylsulfonyl)piperidin-4-yl)-5-(trifluoromethyl)pyrimidin-2-amine]
